CD50 and S.I. data for 3 molecules are collected here from patent publication US5922727A, “Antiviral substituted pyrimidinedione homocarbocyclic nucleoside derivatives and methods for the preparation thereof and compositions containing the same as active ingredients” (Samjin Pharmaceutical Co., Ltd, priority 1996, dated 1999).

The test system of data set [1] is MT-4 cells. Kind of data set: cytotoxicity: viability of mock-infected MT-4 host cells (MTT method). It counts as cell-based. Set-up: unit not given here. The following applies: mock-infected MT-4 cells. As for the experimental part:
(§1) The anti-HIV assays were based on the inhibition of the virus-induced cytopathic effect in MT-4 cells as a described method in J. Med. Chem, 34, 357, 1991. Briefly, MT-4 cells were suspended in culture medium at 2.5×10^5 cells/ml and infected with 1000 CCID50 (50% cell culture infective dose) of HIV. Immediately, after virus infection, 100 μl of the cell suspension was brought into each well of a flat-bottomedmicrotitray containing various concentrations of the test compounds. After a 4 or 5 days incubation at 37° C., the number of viable cells was determined by the 3-(4,5-dimethylthiazol-2-yl)-2,5-diphenyltetrazolium bromide (MTT) method, as disclosed in J. Virol. Methods, 20, 309, 1988. The cytotoxicity of the compounds of the present invention was assessed in parallel with their antiviral activity. It was based on the viability of mock-infected host cells as determined by the MTT methods.

Data set [2] deals with HIV. It counts as cell-based. The conditions noted are these: ratio CD50/ED50. The procedure:
as §1

Setting [3] is: marker a (undefined, shared with AZT^a).
The mark [4] stands for this setting: marker e (undefined, shared with AZT^e).

Like-named read-outs stand apart in the source and are kept apart here.

Regarding `CCc1c(Sc2cc(C)cc(C)c2)n(CC2=CCC(CO)C2)c(=O)[nH]c1=O` (stereo not drawn) [Example 7, 1-[(4-Hydroxymethylcyclopent-1-en-1-yl)methyl]-5-ethyl-6-(3,5-dimethylphenylthio)-2,4-pyrimidinedione], the CD50 in data set [1] (no run marker) was determined as 7.69. Besides, the S.I. in data set [2] (no run marker) is reported as 3,004.

In data set [1] (setting [3]), `Cc1cc(C)cc(Sc2c(C(C)C)c(=O)[nH]c(=O)n2CC2CC=CC2)c1` [Example 4, 1-[(Cyclopent-3-en-1-yl)methyl]-5-isopropyl-6-(3,5-dimethylphenylthio) -2,4-pyrimidinedione] displayed a CD50 of 11.40. For the same molecule, the S.I. in data set [2] (setting [3]) is given as 2,111.

`CCc1c(C(=O)c2cc(C)cc(C)c2)n(CCC2CCCC2)c(=O)[nH]c1=O` [Example 44, 1-(2-Cyclopentyl)ethyl-5-ethyl-6-(3,5-dimethylbenzoyl)-2,4-pyrimidinedione] came in with a CD50 in data set [1] (setting [4]) of 8.58. Also, the S.I. in data set [2] (setting [4]) is 5,958.
